From article PMC9706920, “Aryloxypropanolamine targets amyloid aggregates and reverses Alzheimer-like phenotypes in Alzheimer mouse models” (Alzheimer's Research & Therapy, 2022)

How the values were obtained:
Aβ(1–42) = target: T1, Aβ(1–42) (Homo sapiens, UniProt P05067); assay: ThT fluorescence Aβ(1–42) aggregation inhibition assay; type: biochemical; conditions: compounds at 0.5, 5, 50, 500 μM co-incubated with monomeric Aβ(1–42) 25 μM, 37°C, 3 days; concentration of the printed value not stated
T1 construct: Synthesized monomeric Aβ(1–42), […]; […]; IA; made in house; host or cells: chemical synthesis (Fmoc solid phase peptide synthesis)
Description: (§1) ThT fluorescence was used to assess the in vitro inhibition of Aβ(1–42) and disaggregation of Aβ(1–42), Aβ(1–40), Aβ(pE3-42), recombinant tau K18, and tau repeats R1, R2, R3, R4 by YIAD compounds. In house synthetic Aβ(1–42) was dissolved in DMSO (1 mM, 100% DMSO) and diluted to 20-fold in deionized water to make 50 μM Aβ(1–42) stocks (5% DMSO). YIAD compounds were first dissolved in DMSO (100 mM, 100% DMSO) and serially diluted with deionized water to make YIAD stocks with concentrations of 1, 10, 100, and 1000 μM (10% DMSO). For the Aβ(1–42) inhibition assay, monomeric Aβ(1–42) stocks and YIAD stocks were co-incubated at 37°C for 3 days. For Aβ(1–42) disaggregation assay, monomeric Aβ(1–42) stocks were preincubated at 37°C for three days to form Aβ(1–42) aggregates, and subsequently, YIAD stocks were added for an additional 3 days. For Aβ(1-40) disaggregation assays, Aβ(1–40) (50 μM, 5% DMSO) was preincubated at 37°C for 3 days to induce aggregation, and co-incubated with YIAD001 and YIAD002 for an additional 3 days. For Aβ(pE3-42) disaggregation assays, in house synthetic Aβ(pE3-42) (50 μM, 5% DMSO) was preincubated at 37°C for 1 day and co-incubated with YIAD002 for an additional 3 days. For tau K18 disaggregation assay, recombinant tau K18 fragments (35 μM) were dissolved in PBS with 0.1 mg/mL of heparin and 100 μM of DTT, then pre-aggregated at 37°C for 3 days. Then, YIAD stocks were added to aggregated K18 fragments for an additional 3 days. For tau repeat disaggregation assays, tau repeats (R1, R2, R3, R4) (35 μM) were dissolved in PBS with 0.1 mg/mL of heparin and 100 μM of DTT, then pre-aggregated at 37°C for 1 day. Then, YIAD002 was added to aggregated repeats for an additional 3 days. Prior to fluorescence intensity measurement, ThT solution (5 μM) was prepared by dissolving ThT, purchased from Sigma-Aldrich (MO, USA) in 50 mM glycine buffer (pH 8.5). To quantify the effect of inhibition and disaggregation, 25 μL of all samples and 75 μL of ThT solution were loaded into a half-area 96-well black plate in triplicate.

Aβ(1–40) aggregates = target: T2, Aβ(1–40) aggregates (Homo sapiens, UniProt P05067); assay: ThT fluorescence Aβ(1–40) disaggregation assay; type: biochemical; conditions: 500 μM compound, Aβ(1–40) 25 μM pre-aggregated 3 days, co-incubated additional 3 days
T2 construct: Aβ(1–40), […]; […]; made in house; host or cells: chemical synthesis (Fmoc solid phase peptide synthesis)
Description: as §1, with “For Aβ(pE3-42) disaggregation assays, in house synthetic Aβ(pE3-42) (50 μM, 5% DMSO) was preincubated at 37°C for 1 day and co-incubated with YIAD002 for an additional 3 days. For tau K18 disaggregation assay, recombinant tau K18 fragments (35 μM) were dissolved in PBS with 0.1 mg/mL of heparin and 100 μM of DTT, then pre-aggregated at 37°C for 3 days. Then, YIAD stocks were added to aggregated K18 fragments for an additional 3 days. For tau repeat disaggregation assays, tau repeats (R1, R2, R3, R4) (35 μM) were dissolved in PBS with 0.1 mg/mL of heparin and 100 μM of DTT, then pre-aggregated at 37°C for 1 day. Then, YIAD002 was added to aggregated repeats for an additional 3 days.” left out

CYP 1A2 = target: T3, CYP 1A2 (Homo sapiens, UniProt P05177); assay: CYP450 inhibition assay, 1A2; type: in vitro ADME; conditions: YIAD002 10 μM, human liver microsomes; weak or no inhibition; read-out: CYP 1A2 inhibition, IC50 (inhibition criteria)
T3 construct: […]; from tissue; host or cells: human liver microsomes
T3 sequence (P05177 1-516): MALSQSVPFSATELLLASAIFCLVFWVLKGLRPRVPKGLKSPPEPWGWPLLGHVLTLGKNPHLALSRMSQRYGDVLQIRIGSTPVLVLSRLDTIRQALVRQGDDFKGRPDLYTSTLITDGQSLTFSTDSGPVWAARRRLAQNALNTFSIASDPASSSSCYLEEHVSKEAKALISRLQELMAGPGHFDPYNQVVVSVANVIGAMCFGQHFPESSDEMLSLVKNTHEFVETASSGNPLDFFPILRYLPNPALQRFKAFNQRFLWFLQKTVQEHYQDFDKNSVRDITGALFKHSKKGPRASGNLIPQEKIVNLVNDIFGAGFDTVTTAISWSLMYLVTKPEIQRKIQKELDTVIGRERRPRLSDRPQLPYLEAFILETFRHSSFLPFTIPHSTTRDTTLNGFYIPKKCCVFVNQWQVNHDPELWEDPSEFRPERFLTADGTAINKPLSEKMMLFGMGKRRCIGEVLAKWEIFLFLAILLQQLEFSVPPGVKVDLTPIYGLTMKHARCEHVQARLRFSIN
Description: (§2) Incubation mixtures for Cytochrome P450s (CYPs) inhibition assay contained human liver microsomes (0.25 mg/ml), 0.1 M phosphate buffer (pH 7.4), 10 μM of YIAD002, and an enzyme substrate cocktail (phenacetin 50 μM, diclofenac 10 μM, S-mephenytoin 100 μM, dextromethorphan 5 μM, and midazolam 2.5 μM). The mixture was pre-incubated at 37°C for 5 min and 1 mM NAPDH was added to initiate reactions. After 15 min of incubation, acetonitrile with terfenadine was added to stop reactions and microsomal solutions were centrifuged at 14,000 rpm at 4°C for 5 min. For LC-MS/MS analysis, supernatants were injected on a Kinetex C18 column (2.1 × 100 mm, 2.6 μm particle size, Phenomenex, USA). The composition of the mobile phase was 0.1% formic acid in water (A) and 0.1% formic acid in acetonitrile (B).

CYP 2C19 = target: T4, CYP 2C19 (Homo sapiens, UniProt P33261); assay: CYP450 inhibition assay, 2C19; type: in vitro ADME; conditions: YIAD002 10 μM, human liver microsomes; weak or no inhibition; read-out: CYP 2C19 inhibition, IC50 (inhibition criteria)
T4 construct: contained human liver microsomes (0.25 mg/ml); from tissue; host or cells: human liver microsomes
Description: as §2

α-synuclein aggregates = α-synuclein aggregates (Homo sapiens, UniProt P37840); assay: ThT dissociation assay against α-synuclein aggregation; type: biochemical; conditions: α-synuclein 35 μM pre-aggregated 3 days, compound additional 3 days
Description: [picture] Figure S5. ThT dissocation assay against α-synuclein aggregation. Dissociative effects of YIAD001 and YIAD002 against α-synuclein aggregation were evaluated using ThT fluorescence. α-synuclein (35 μM) was pre-aggregated for 3 days. YIAD001 and YIAD002 were added to and co-incubated with pre-aggregated samples for an additional 3 days. Aggregation time for α-synuclein is indicated as ‘+’ for 3 days and ‘++’ for 6 days. All fluorescence intensities were normalized and statistically compared to α-synuclein-only 3 days (+) control (100%). One-way analysis of variance followed by Bonferroni’s post-hoc comparisons tests were performed in all statistical analyses (****P < 0.0001). Data are presented as mean ± SEM. Abbreviations: Aggr. = Aggregation, Cpd. = Compound.

T2 sequence (P05067 672-711): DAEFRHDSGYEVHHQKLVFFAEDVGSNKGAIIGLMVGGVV
T1 sequence (P05067 672-713 limits assumed): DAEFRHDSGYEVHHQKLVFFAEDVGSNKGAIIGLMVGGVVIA
T4 sequence (P33261 whole entry): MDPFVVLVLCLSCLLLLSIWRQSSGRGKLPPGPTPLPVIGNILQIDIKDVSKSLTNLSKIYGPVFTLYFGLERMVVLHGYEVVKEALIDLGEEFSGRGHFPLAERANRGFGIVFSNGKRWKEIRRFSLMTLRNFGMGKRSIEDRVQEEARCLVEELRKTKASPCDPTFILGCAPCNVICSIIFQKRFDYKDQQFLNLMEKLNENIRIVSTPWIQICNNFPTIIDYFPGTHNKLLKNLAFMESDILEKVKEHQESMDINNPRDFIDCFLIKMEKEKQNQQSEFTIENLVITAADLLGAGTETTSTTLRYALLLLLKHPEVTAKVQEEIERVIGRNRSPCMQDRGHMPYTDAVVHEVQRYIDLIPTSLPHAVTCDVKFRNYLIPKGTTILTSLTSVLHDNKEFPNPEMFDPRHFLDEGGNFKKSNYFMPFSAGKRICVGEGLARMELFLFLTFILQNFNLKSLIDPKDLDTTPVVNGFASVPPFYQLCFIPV

SMILES | Inhibition of Aβ(1–42) fibrillation (ThT fluorescence) (Aβ(1–42)) | Decrease of Aβ(1–40) aggregates (ThT fluorescence) (Aβ(1–40) aggregates) | IC50 (CYP 1A2) | IC50 (CYP 2C19) | Interaction with α-synuclein aggregates (ThT dissociation) (α-synuclein aggregates)
CCC(C)(C)c1ccc(OCC(O)CN2CCCC2)c(C(C)(C)CC)c1.Cl (stereo not shown) [YIAD002, 1-(3-(2,4-Di-tert-pentylphenoxy)-2-hydroxypropyl)pyrrolidin-1-ium chloride] | 98.15% | 83.35% | > 10 µM | > 10 µM | did not interact with α-synuclein aggregates
CCC(C)(C)c1ccc(OCC(O)CN2CCOCC2)c(C(C)(C)CC)c1.Cl (stereo not shown) [YIAD001, 4-(3-(2,4-Di-tert-pentylphenoxy)-2-hydroxypropyl)morpholin-4-ium chloride] | 82.55% | 58.98% |  |  | 
